Experimental findings from patent US10385019B2, “Inhibitors of EGFR and methods of use thereof” (Dana-Farber Cancer Institute, Inc., priority 2015, dated 2019) are described below.

Assay in all cases: Ba/F3 cell proliferation model
Common to all, as to assay type: cell-based, murine

Assay [1] has as its target EGFR T790M/L858R Ba/F3 cell line (Homo sapiens, UniProt P00533, T790M/L858R, cells depend on it). Conditions: for Activity (% inhibition): combined with cetuximab (% cetuximab, 1.0 μM drug concentration with 1.0 μg/mL cetuximab). A digest of the protocol:
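Murine Ba/F3 cells made IL-3-independent by retroviral EGFR L858R/T790M, selected in puromycin (2 μg/ml) and kept in RPMI 1640 with 10% FBS. Cells were exposed to serially diluted compound for 72 h, with growth read by MTS assay in six wells per point and ≥3 repeats. Sigmoidal dose-response non-linear regression gave the values.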

For assay [2], the target named is Del/T790M Ba/F3 cell line (Homo sapiens, UniProt P00533, DEL746-750/T790M, cells depend on it). From the text: (§1) The selectivity between wild-type EGFR and EGFR containing one or more mutations as described herein can also be measured using cellular proliferation assays where cell proliferation is dependent on kinase activity. For example, murine Ba/F3 cells transfected with a suitable version of wild-type EGFR (such as VIII; containing a WT EGFR kinase domain), or Ba/F3 cells transfected with L858R/T790M, Del/T790M/L718Q, L858R/T790M/L718Q, L858R/T790M/C797S, Del/T790M/C797S, L858R/T790M/I941R, or Exon 19 deletion/T790M can be used.
Del/T790M Ba/F3 cell line, sequence (P00533 with tags, fused parts or gaps DEL746-750/T790M): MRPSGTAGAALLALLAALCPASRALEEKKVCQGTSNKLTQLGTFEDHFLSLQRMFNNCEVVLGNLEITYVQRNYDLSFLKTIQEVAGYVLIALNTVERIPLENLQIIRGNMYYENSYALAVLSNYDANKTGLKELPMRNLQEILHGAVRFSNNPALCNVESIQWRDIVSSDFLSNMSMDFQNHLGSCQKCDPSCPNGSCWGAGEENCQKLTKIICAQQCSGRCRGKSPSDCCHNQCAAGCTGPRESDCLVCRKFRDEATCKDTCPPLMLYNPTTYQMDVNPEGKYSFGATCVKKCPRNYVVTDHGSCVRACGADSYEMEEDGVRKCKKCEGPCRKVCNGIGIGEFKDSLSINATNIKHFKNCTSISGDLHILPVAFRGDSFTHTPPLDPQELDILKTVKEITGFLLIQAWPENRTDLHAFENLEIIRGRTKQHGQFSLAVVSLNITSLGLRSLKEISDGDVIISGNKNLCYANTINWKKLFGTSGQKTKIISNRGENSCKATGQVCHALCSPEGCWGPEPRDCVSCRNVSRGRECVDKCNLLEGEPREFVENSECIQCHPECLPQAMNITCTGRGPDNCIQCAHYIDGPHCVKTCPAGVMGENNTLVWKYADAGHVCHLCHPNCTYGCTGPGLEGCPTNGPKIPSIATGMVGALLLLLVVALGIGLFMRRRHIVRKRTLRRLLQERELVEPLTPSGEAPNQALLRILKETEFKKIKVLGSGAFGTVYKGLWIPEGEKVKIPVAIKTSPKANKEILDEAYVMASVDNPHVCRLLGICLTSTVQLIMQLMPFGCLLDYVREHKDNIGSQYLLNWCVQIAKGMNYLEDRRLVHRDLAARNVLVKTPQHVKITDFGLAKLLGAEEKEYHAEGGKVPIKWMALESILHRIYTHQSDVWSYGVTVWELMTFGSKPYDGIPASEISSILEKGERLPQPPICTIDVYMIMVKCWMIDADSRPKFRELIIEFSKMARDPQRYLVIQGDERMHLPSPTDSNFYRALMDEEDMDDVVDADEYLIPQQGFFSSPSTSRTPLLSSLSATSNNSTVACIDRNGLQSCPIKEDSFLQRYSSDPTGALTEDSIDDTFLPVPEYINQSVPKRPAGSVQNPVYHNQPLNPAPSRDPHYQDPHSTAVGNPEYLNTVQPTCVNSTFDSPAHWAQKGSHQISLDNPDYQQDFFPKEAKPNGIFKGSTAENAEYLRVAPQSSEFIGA
(§2) Cell lines are plated in media. The compounds of the present disclosure are then serially diluted and transferred to the cells. Cell viability is measured via a luminescent readout. Data is analyzed by non-linear regression curve-fitting.
(§3) The EGFR mutant L858R, Del E746_A750, L858R/T790M, DelE746_A750/T790M, L858R/T790M/C797S and Del/T790M/C797S Ba/F3 cells have been previously described (Zhou, W., Ercan, D., Chen, L., Yun, C. H., Li, D., Capelletti, M., Cortot, A. B., Chirieac, L., Iacob, R. E., Padera, R., et al. “Novel mutant-selective EGFR kinase inhibitors against EGFR T790M,” Nature 462, (2009), 1070-1074). All cell lines were maintained in RPMI 1640 (Cellgro; Mediatech Inc., Herndon, Calif.) supplemented with 10% FBS 100 units/mL penicillin, 100 units/mL streptomycin, and 2 mM glutamine. L858R cells were maintained in ACL-4 media (Invitrogen, Carlsbad, Calif.) supplemented with 5% FBS, 100 units/mL penicillin, 100 units/mL streptomycin, and 2 mM glutamine. The EGFR I941R mutation was introduced via site directed mutagenesis using the Quick Change Site-Directed Mutagenesis kit (Stratagene; La Jolla, Calif.) according to the manufacturer's instructions. All constructs were confirmed by DNA sequencing. The constructs were shuttled into the retroviral vector JP 1540 using the BD Creator™ System (BD Biosciences). Ba/F3 cells were infected with retrovirus and according to standard protocols, as described previously (Zhou et al, Nature 2009). Stable clones were obtained by selection in puromycin (2 μg/ml).
(§4) Growth and inhibition of growth was assessed by MTS assay and was performed according to previously established methods (Zhou et al., Nature 2009). The MTS assay is a colorimetric method for determining the number of viable cells that is based on the bioreduction of MTS by cells to a formazan product that is soluble in cell culture medium and can be detected spectrophotometrically. Ba/F3 cells of different EGFR genotypes were exposed to treatment for 72 hours and the number of cells used per experiment determined empirically and has been previously established (Zhou et al., Nature 2009). All experimental points were set up in six wells and all experiments were repeated at least three times. […] The curves were fitted using a non-linear regression model with a sigmoidal dose response.

In assay [3] the test system is EGFR Parental Ba/F3 cell line. Conditions: Mus musculus, BaF3; compound alone.
Source text: as §1, §2, §3, §4

[4] abbreviates: compound alone, read-out: L858R/T790M IC50.
[5] abbreviates: read-out: L858R/T790M Cetuximab IC50, in combination with Cetuximab.
Where [6] appears, read: compound alone, read-out: Del/T790M IC50.
The mark [7] stands for this setting: read-out: Del/T790M Cetuximab IC50, in combination with Cetuximab.

The structures appear in SMILES notation. Like-named read-outs stand apart in the source and are kept apart here. A value given as a limit tells only on which side of the number the result lay.

EGFR T790M/L858R Ba/F3 cell line, sequence (P00533 whole entry T790M/L858R): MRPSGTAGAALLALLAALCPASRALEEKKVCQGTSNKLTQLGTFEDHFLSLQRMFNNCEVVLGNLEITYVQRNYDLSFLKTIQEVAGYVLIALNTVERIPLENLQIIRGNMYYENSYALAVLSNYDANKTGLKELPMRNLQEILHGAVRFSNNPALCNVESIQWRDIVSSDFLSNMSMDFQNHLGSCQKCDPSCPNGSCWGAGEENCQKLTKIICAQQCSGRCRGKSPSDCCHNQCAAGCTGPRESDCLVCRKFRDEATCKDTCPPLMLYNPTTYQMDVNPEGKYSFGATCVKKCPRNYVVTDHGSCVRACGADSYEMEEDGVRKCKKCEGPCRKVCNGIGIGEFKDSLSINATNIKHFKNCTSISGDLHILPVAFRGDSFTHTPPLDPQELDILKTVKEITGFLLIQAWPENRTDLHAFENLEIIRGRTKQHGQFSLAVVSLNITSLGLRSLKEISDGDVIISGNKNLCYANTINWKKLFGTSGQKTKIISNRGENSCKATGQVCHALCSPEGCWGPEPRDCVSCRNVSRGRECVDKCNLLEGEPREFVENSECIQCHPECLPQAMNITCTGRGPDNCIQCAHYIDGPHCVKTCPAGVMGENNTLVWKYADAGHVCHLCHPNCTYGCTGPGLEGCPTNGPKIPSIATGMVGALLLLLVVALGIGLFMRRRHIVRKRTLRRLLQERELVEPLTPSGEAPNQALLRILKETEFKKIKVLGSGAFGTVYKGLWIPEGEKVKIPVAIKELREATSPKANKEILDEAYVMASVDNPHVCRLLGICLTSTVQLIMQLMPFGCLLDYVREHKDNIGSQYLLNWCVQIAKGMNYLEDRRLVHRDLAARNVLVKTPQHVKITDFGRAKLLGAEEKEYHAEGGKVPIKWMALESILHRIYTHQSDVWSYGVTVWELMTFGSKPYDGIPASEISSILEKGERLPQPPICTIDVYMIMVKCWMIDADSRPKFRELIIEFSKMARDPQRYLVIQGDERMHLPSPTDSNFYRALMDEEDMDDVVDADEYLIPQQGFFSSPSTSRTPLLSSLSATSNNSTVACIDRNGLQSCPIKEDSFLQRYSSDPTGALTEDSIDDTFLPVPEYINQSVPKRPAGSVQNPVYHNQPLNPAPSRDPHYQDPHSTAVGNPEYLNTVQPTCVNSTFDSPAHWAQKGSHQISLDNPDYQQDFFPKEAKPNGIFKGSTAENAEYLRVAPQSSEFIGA

In general, IC50 refers to the concentration that gives 50% inhibition. For the molecule `O=C(Nc1nccs1)[C@@H](c1ccccc1)N1Cc2ccc(-c3ccc4[nH]ccc4c3)cc2C1=O` [Compound I-66, (R)-2-(6-(1H-indol-5-yl)-1-oxoisoindolin-2-yl)-2-phenyl-N-(thiazol-2-yl)acetamide], in assay [1], the “Activity (% inhibition)” value is recorded as “D (a % inhibition of between about 0% to about 25%)”. For the same molecule, the GI50 in assay [1] (setting [4]) is 1 to 10 µM; in assay [1] (setting [5]), less than 0.5 µM; in assay [2] (setting [6]), greater than 10 µM; in assay [2] (setting [7]), 1 to 10 µM. Also, the IC50 in assay [3] is greater than 10 µM.

For `O=C(Nc1nccs1)[C@H](c1ccccc1)N1Cc2ccc(-c3ccc4[nH]ccc4c3)cc2C1=O` [Compound I-112, (S)-2-(6-(1H-indol-5-yl)-1-oxoisoindolin-2-yl)-2-phenyl-N-(thiazol-2-yl)acetamide], the “Activity (% inhibition)” value in assay [1] is reported as “D (a % inhibition of between about 0% to about 25%)”. The GI50 was 1 to 10 µM in assay [1] (setting [4]), less than 0.5 µM in assay [1] (setting [5]), greater than 10 µM in assay [2] (setting [6]) and greater than 10 µM in assay [2] (setting [7]). The IC50 in assay [3] is greater than 10 µM.

Turning to `CN1CCN(c2ccc(-c3ccc4c(c3)C(=O)N([C@@H](C(=O)Nc3nccs3)c3ccccc3)C4)cc2)CC1` [Compound I-69, (R)-2-(6-(4-(4-methylpiperazin-1-yl)phenyl)-1-oxoisoindolin-2-yl)-2-phenyl-N-(thiazol-2-yl) acetamide], in assay [1], the “Activity (% inhibition)” value is given as “D (a % inhibition of between about 0% to about 25%)”. Moreover, the GI50 in assay [1] (setting [4]) was 1 to 10 µM; in assay [1] (setting [5]), less than 0.5 µM; in assay [2] (setting [6]) it was 1 to 10 µM; in assay [2] (setting [7]), 1 to 10 µM. Also, the IC50 in assay [3] is 1 to 10 µM.

Consider `O=C(Nc1nccs1)[C@H](c1ccccc1)N1Cc2ccc(-c3ccc(N4CCNCC4)cc3)cc2C1=O` [Compound I-115, (S)-2-(1-oxo-6-(4-(piperazin-1-yl)phenyl)isoindolin-2-yl)-2-phenyl-N-(thiazol-2-yl)acetamide], for which, in assay [1], the “Activity (% inhibition)” value is “D (a % inhibition of between about 0% to about 25%)”. Further, the GI50 in assay [1] (setting [4]) is 1 to 10 µM; in assay [1] (setting [5]), less than 0.5 µM; in assay [2] (setting [6]), 1 to 10 µM; in assay [2] (setting [7]) it was 1 to 10 µM. The IC50 in assay [3] was in the range of 1 to 10 µM.

For the molecule `O=C(Nc1nccs1)[C@H](c1ccccc1)N1Cc2ccc(-c3ccccc3F)cc2C1=O` [Compound I-113, (S)-2-(6-(2-fluorophenyl)-1-oxoisoindolin-2-yl)-2-phenyl-N-(thiazol-2-yl)acetamide], the “Activity (% inhibition)” value in assay [1] is on record as “C (a % inhibition of between about 25% to about 50%)”. Further, the GI50 is greater than 10 µM in assay [1] (setting [4]), less than 0.5 µM in assay [1] (setting [5]), greater than 10 µM in assay [2] (setting [6]) and greater than 10 µM in assay [2] (setting [7]). Besides, the IC50 in assay [3] is greater than 10 µM.

For the molecule `O=C(Nc1nccs1)[C@@H](c1ccccc1)N1Cc2ccc(-c3ccccc3F)cc2C1=O` [Compound I-75, (R)-2-(6-(2-fluorophenyl)-1-oxoisoindolin-2-yl)-2-phenyl-N-(thiazol-2-yl)acetamide], the “Activity (% inhibition)” value in assay [1] was “D (a % inhibition of between about 0% to about 25%)”. The GI50 is greater than 10 µM in assay [1] (setting [4]), less than 0.5 µM in assay [1] (setting [5]), 1 to 10 µM in assay [2] (setting [6]) and 1 to 10 µM in assay [2] (setting [7]). Further, the IC50 in assay [3] is greater than 10 µM.

In the case of `O=C(Nc1nccs1)C(c1cccc(F)c1)N1Cc2ccc(-c3ccc4[nH]ccc4c3)cc2C1=O` (stereo not drawn) [Compound I-122, 2-(6-(1H-indol-5-yl)-1-oxoisoindolin-2-yl)-2-(3-fluorophenyl)-N-(thiazol-2-yl)acetamide], in assay [1], the “Activity (% inhibition)” value is listed as “D (a % inhibition of between about 0% to about 25%)”. Besides, the GI50 was 1 to 10 µM in assay [1] (setting [4]), less than 0.5 µM in assay [1] (setting [5]), greater than 10 µM in assay [2] (setting [6]) and greater than 10 µM in assay [2] (setting [7]). The IC50 in assay [3] was in the range of 1 to 10 µM.

Take `O=C(Nc1nccs1)[C@@H](c1ccccc1)N1Cc2ccc(-c3ccc(N4CCNCC4)cc3F)cc2C1=O` [Compound I-120, (R)-2-(6-(2-fluoro-4-(piperazin-1-yl)phenyl)-1-oxoisoindolin-2-yl)-2-phenyl-N-(thiazol-2-yl)acetamide]: in assay [1], the “Activity (% inhibition)” value is recorded as “D (a % inhibition of between about 0% to about 25%)”. Besides, the GI50 in assay [1] (setting [4]) is 1 to 10 µM; in assay [1] (setting [5]), less than 0.5 µM; in assay [2] (setting [6]), 1 to 10 µM; in assay [2] (setting [7]), 1 to 10 µM. For the same molecule, the IC50 in assay [3] lay within 1 to 10 µM.

For `O=C(Nc1nccs1)[C@@H](c1ccccc1)N1Cc2ccc(-c3ccc(N4CCNCC4)cc3)cc2C1=O` [Compound I-68, (R)-2-(1-oxo-6-(4-(piperazin-1-yl)phenyl)isoindolin-2-yl)-2-phenyl-N-(thiazol-2-yl)acetamide], the “Activity (% inhibition)” value in assay [1] is “D (a % inhibition of between about 0% to about 25%)”. The GI50 is 1 to 10 µM in assay [1] (setting [4]), less than 0.5 µM in assay [1] (setting [5]), 1 to 10 µM in assay [2] (setting [6]) and 1 to 10 µM in assay [2] (setting [7]). The IC50 in assay [3] lay in the range of 1 to 10 µM.

As for `O=C(Nc1nccs1)[C@@H](c1ccccc1)N1Cc2ccc(-c3cnc4ccccc4c3)cc2C1=O` [Compound I-70, (R)-2-(1-oxo-6-(quinolin-3-yl)isoindolin-2-yl)-2-phenyl-N-(thiazol-2-yl)acetamide], the “Activity (% inhibition)” value in assay [1] was “D (a % inhibition of between about 0% to about 25%)”. For the same molecule, the GI50 in assay [1] (setting [4]) was greater than 10 µM; in assay [1] (setting [5]), less than 0.5 µM; in assay [2] (setting [6]) it was greater than 10 µM; in assay [2] (setting [7]), greater than 10 µM. Moreover, the IC50 in assay [3] is greater than 10 µM.

Take `COc1cc(OC)cc(-c2ccc3c(c2)C(=O)N([C@@H](C(=O)Nc2nccs2)c2ccccc2)C3)c1` [Compound I-79, (R)-2-(6-(3,5-dimethoxyphenyl)-1-oxoisoindolin-2-yl)-2-phenyl-N-(thiazol-2-yl)acetamide]: the “Activity (% inhibition)” value in assay [1] is listed as “D (a % inhibition of between about 0% to about 25%)”. Moreover, the GI50 in assay [1] (setting [4]) was greater than 10 µM; in assay [1] (setting [5]) it was less than 0.5 µM; in assay [2] (setting [6]), greater than 10 µM; in assay [2] (setting [7]), greater than 10 µM. Besides, the 50% inhibitory concentration (IC50) in assay [3] was greater than 10 µM.

Take `O=C(Nc1nccs1)[C@@H](c1ccccc1)N1Cc2ccc(-c3ccc4c(c3)OCCO4)cc2C1=O` [Compound I-65, (R)-2-(6-(2,3-dihydrobenzo[b] [1,4]dioxin-6-yl)-1-oxoisoindolin-2-yl)-2-phenyl-N-(thiazol-2-yl)acetamide]: the “Activity (% inhibition)” value in assay [1] is listed as “D (a % inhibition of between about 0% to about 25%)”. Further, the GI50 is greater than 10 µM in assay [1] (setting [4]), less than 0.5 µM in assay [1] (setting [5]), greater than 10 µM in assay [2] (setting [6]) and greater than 10 µM in assay [2] (setting [7]). Further, the IC50 in assay [3] is greater than 10 µM.

For the molecule `CC(C)(C)OC(=O)N1CCN(c2ccc(-c3ccc4c(c3)C(=O)N([C@@H](C(=O)Nc3nccs3)c3ccccc3)C4)c(F)c2)CC1` [Compound I-119, tert-butyl (R)-4-(3-fluoro-4-(3-oxo-2-(2-oxo-1-phenyl-2-(thiazol-2-ylamino)ethyl)isoindolin-5-yl)phenyl)piperazine-1-carboxylate], the “Activity (% inhibition)” value in assay [1] is recorded as “D (a % inhibition of between about 0% to about 25%)”. In addition, the GI50 in assay [1] (setting [4]) was greater than 10 µM; in assay [1] (setting [5]) it was less than 0.5 µM; in assay [2] (setting [6]) it was greater than 10 µM; in assay [2] (setting [7]), greater than 10 µM. For the same molecule, in assay [3], the IC50 was greater than 10 µM.
